Experimental data reported in patent publication US8883801B2, “Substituted pyrazolo[1,5-a]pyrimidines as mTOR inhibitors” (Merck Sharp & Dohme Corp., priority 2010, dated 2014).

Columns and labels:
[1] = test system: mTORC2 activity: phosphorylated AKT Ser473 (pAKT S473) in PC3 cells; experiment: mTOR target engagement assay, immunofluorescent cell-based, mTORC2 readout; details: Homo sapiens, PC-3, 1.5 h, rated class, 90 min treatment
Procedure, shortened: (§1)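 Read-out is immunofluorescence intensity, normalized to DMSO-only wells and fitted to a sigmoidal Hill equation for IC50. The mTORC1 arm probes phospho-4E-BP1 Thr37/46 and the mTORC2 arm phospho-AKT Ser473.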

[2] = test system: mTORC1 activity: phosphorylated 4E-BP1 Thr37/46 (p4E-BP1 Thr37/46) in PC3 cells; experiment: mTOR target engagement assay, immunofluorescent cell-based, mTORC1 readout; details: Homo sapiens, PC-3, 1.5 h, rated class, 90 min treatment, read-out: P4EBP1 IC50
Procedure, shortened: as §1

[3] = target: human mTOR enzyme (Homo sapiens, UniProt P42345); experiment: HTRF mTOR enzyme (kinase) assay; type: biochemical; details: rated class; 5 μM ATP, 0.2 μM GST-S6K; read-out: hMTOR IC50
human mTOR enzyme, sequence (P42345 1360-2549 limits assumed): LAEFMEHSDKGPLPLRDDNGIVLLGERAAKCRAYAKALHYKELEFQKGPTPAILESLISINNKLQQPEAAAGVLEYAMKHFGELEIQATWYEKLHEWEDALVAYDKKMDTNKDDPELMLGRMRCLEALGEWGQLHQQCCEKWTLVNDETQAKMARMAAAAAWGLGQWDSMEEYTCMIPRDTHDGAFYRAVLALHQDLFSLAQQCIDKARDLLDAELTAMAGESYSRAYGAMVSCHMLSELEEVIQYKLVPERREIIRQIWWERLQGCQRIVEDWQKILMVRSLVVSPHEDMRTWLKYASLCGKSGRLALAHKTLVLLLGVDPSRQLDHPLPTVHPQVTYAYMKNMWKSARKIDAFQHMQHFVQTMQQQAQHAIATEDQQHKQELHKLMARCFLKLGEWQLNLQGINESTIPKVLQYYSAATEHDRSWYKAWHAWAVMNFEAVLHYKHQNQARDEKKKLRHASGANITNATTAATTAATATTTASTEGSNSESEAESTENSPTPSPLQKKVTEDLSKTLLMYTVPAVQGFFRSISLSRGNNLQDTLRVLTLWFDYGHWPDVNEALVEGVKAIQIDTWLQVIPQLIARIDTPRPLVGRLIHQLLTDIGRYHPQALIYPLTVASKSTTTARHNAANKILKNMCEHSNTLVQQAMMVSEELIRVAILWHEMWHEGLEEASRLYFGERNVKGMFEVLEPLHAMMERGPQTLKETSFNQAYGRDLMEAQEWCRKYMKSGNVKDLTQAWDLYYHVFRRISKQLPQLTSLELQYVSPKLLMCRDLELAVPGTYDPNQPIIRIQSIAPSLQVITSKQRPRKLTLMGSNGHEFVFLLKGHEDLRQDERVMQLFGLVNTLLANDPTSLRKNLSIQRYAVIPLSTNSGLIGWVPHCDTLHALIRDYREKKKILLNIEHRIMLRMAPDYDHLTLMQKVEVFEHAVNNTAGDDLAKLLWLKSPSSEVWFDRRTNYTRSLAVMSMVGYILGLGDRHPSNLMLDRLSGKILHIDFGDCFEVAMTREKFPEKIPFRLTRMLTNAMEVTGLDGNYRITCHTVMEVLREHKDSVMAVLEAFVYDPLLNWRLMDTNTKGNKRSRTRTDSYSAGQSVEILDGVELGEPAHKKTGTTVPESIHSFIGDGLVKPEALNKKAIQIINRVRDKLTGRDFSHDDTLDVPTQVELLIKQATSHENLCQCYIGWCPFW

| Compound | IC50 [1] [µM] | IC50 [2] [µM] | IC50 [3] [µM] |
| --- | --- | --- | --- |
| COCCO[C@]1(c2nnc(N)o2)CC[C@@H](c2nc3c(-c4cnn(-c5ccccc5)c4)cnn3c(N)c2S(C)(=O)=O)CC1 [Compound 108, 5-((1R,4R)-4-(7-amino-6-(methylsulfonyl)-3-(1-phenyl-1H-pyrazol-4-yl)pyrazolo[1,5-a]pyrimidin-5-yl)-1-(2-methoxyethoxy)cyclohexyl)-1,3,4-oxadiazol-2-amine] | 0.001 to 0.1 | 0.1 to 1 | 0.001 to 0.1 |
| COCCO[C@]1(C(N)=O)CC[C@@H](c2nc3c(-c4ccc(-c5ncc[nH]5)nc4)cnn3c(N)c2C(C)=O)CC1 [Compound 112, (1R,4R)-4-(3-(6-(1H-imidazol-2-yl)pyridin-3-yl)-6-acetyl-7-aminopyrazolo[1,5-a]pyrimidin-5-yl)-1-(2-methoxyethoxy)cyclohexanecarboxamide] | 0.001 to 0.1 | 0.001 to 0.1 | 0.001 to 0.1 |
| CO[C@]1(C(=O)O)CC[C@@H](c2nc3c(-c4ccc(-c5ccccc5)nc4)cnn3c(N)c2Br)CC1 [Compound 29, (1R,4R)-4-(7-amino-6-bromo-3-(6-phenylpyridin-3-yl)pyrazolo[1,5-a]pyrimidin-5-yl)-1-methoxycyclohexane-carboxylic acid] | 0.1 to 1 | 0.1 to 1 | 0.001 to 0.1 |
| COCCO[C@]1(C(=O)NOC)CC[C@@H](c2nc3c(-c4cnn(-c5ccccc5)c4)cnn3c(N)c2S(C)(=O)=O)CC1 [Compound 89, (1R,4R)-4-(7-amino-6-(methylsulfonyl)-3-(1-phenyl-1H-pyrazol-4-yl)pyrazolo[1,5-a]pyrimidin-5-yl)-N-methoxy-1-(2-methoxyethoxy)-cyclohexane-carboxamide] | 0.001 to 0.1 | 0.001 to 0.1 | 0.001 to 0.1 |
| COCCO[C@]1(C(=O)n2ccc(=O)[nH]2)CC[C@@H](c2nc3c(-c4cnn(-c5ccccc5)c4)cnn3c(N)c2S(C)(=O)=O)CC1 [Compound 94, 1-((1R,4R)-4-(7-amino-6-(methylsulfonyl)-3-(1-phenyl-1H-pyrazol-4-yl)pyrazolo[1,5-a]pyrimidin-5-yl)-1-(2-methoxyethoxy)-cyclohexanecarbonyl)-1H-pyrazol-3(2H)-one] | 0.001 to 0.1 | 0.1 to 1 | 0.001 to 0.1 |
| COCCO[C@]1(c2nnc(C)o2)CC[C@@H](c2nc3c(-c4cnn(-c5ccccc5)c4)cnn3c(N)c2S(C)(=O)=O)CC1 [Compound 109] | 0.1 to 1 | 2 to 5 | 0.001 to 0.1 |
| COCCO[C@]1(C(=O)CO)CC[C@@H](c2nc3c(-c4cnn(-c5ccccc5)c4)cnn3c(N)c2S(C)(=O)=O)CC1 [Compound 129, 1-((1R,4R)-4-(7-amino-6-(methylsulfonyl)-3-(1-phenyl-1H-pyrazol-4-yl)pyrazolo[1,5-a]pyrimidin-5-yl)-1-(2-methoxyethoxy)cyclohexyl)-2-hydroxyethanone] | 0.001 to 0.1 | 0.1 to 1 | 0.001 to 0.1 |
| CC(=O)c1c(N)n2ncc(-c3ccc(-c4ccccc4)nc3)c2nc1[C@H]1CC[C@@](O)(CS(C)(=O)=O)CC1 [Compound 161, 1-(7-amino-5-((1R,4R)-4-hydroxy-4-(methylsulfonylmethyl)cyclohexyl)-3-(6-phenylpyridin-3-yl)pyrazolo[1,5-a]pyrimidin-6-yl)ethanone] | 0.1 to 1 | 0.1 to 1 | 0.001 to 0.1 |
| COCCO[C@]1(C(=O)c2nnc[nH]2)CC[C@@H](c2nc3c(-c4ccc(-c5ccccc5)nc4)cnn3c(N)c2S(C)(=O)=O)CC1 [Compound 125, ((1R,4R)-4-(7-amino-6-(methylsulfonyl)-3-(6-phenylpyridin-3-yl)pyrazolo[1,5-a]pyrimidin-5-yl)-1-(2-methoxyethoxy)cyclohexyl)(4H-1,2,4-triazol-3-yl)methanone] | 0.001 to 0.1 | 0.001 to 0.1 | 0.001 to 0.1 |
